Test system: four different cancer cell lines (MCF7, Caco-2, HeLa, MDA-MB-231)
Assay: Cell viability (EC50) in four different cancer cell lines, 3 days, nuclei count
Type: cell-based
Details: all four tested cell lines
Protocol: We began our biological investigations by assaying the cytotoxicity of natural deoxyelephantopin (DEP) and its unnatural analogues in four different cancer cell lines (Fig. 5a, Supplementary Figs 6–8).
Figure 5 Assessing the cytotoxicity of deoxyelephantopin (DEP) and analogues. (a) Cell viability measurements in four different cancer cell lines. Cells were treated with compounds for 3 days, the nuclei were stained with DAPI and counted (EC50 values±s.d. shown; n=3). **P<0.005 and ***P<0.0005 by two-sided Student's t-test. (b) Detection of caspase activation and apoptosis in MCF7 cells using FITC-VAD-FMK fluorescent probe (top) or Annexin V staining (bottom). The cells were treated with 1 μM staurosporine (positive control) or 20 μM deoxyelephantopin for 8 h. Confocal microscopy images are shown. EC50, effector concentration for half-maximum response. Scale bars, 30μm. […]
Biological materials. […] Protein concentration was determined using the Bradford assay (Bio-Rad).
Cell culture and preparation of lysates. […] Cells were lysed by sonication to form cell lysates and protein concentration was determined using the Bradford […]
’ cells/mL and HeLa: 1 ’ cells/mL) in a 96-well plate and allowed to attach overnight. […] Cells were imaged using a SpectraMax i3 plate reader equipped with a SpectraMax MiniMax imaging cytometer (Molecular Devices). […]
Caspase activity labeling for fluorescence cell imaging. […]

**Q.** `C#CCC[C@H](OC(=O)C(=C)C)[C@H]1C(=C)C(=O)O[C@@H]1c1ccccc1` [24c] was tested. Which “cytotoxicity rank among alkyne-tagged analogues 24” value did it give?
**A.** highest cytotoxicity
